System: Mper1-luc Rat-1 (P2C4) fibroblasts
Test: Circadian cell assay (mPer1-luciferase reporter, period prolongation)
Type: cell-based
Details: effective concentration that induced a 1-hour prolongation of the circadian period, interpolated from hyperbolic curve
Description: Experimental Protocols for Circadian Cell Assay
Mper1-luc Rat-1 (P2C4) fibroblast cultures were prepared by dividing the cultures every 3-4 days (approximately 10-20% of confluence) on 150 cm^2 degassed polystyrene tissue culture flasks (Falcon® #35-5001) and maintained in growth medium [EMEM (Cellgro #10-010-CV); 10% fetal bovine serum (FBS; Gibco #16000-044); and 50 I.U./ml of penicillin-streptomycin (Cellgro #30-001-CI)] at 37° C. and under 5% CO2.
Cells obtained from Rat-1 fibroblast cultures at 30-50% of confluence as described above were co-transfected with vectors containing the selection marker for resistance to zeocin for a stable transfection and a luciferase reporter gene controlled by the mPer-1 promoter. After 24 to 48 hours, the cultures were divided on 96-well plates and maintained in growth medium supplemented with 50-100 μg/ml of zeocin (Invitrogen® #45-0430) for 10-14 days. The zeocin-resistant stable transfectants were evaluated for the expression of the reporter by adding 100 μM lucerfin (Promega® #E1603®) to the growth medium and by assaying the luciferase activity on a TopCount® scintillation counter (Packard Model #C384V00). The Rat-1 cell clones expressing both zeocin resistance and lucerifase activity controlled by mPer1 were serum-shock synchronized with 50% horse serum [HS (Gibco® #16050-122)] and the activity of the circadian reporter was evaluated. The P2C4 clone of Mper1-luc Rat-1 fibroblasts was selected to test the compound.
Mper1-luc Rat-1 (P2C4) fibroblasts at 40-50% of confluence, obtained according to the protocol described above, were plated out onto 96-well opaque tissue culture plates (Perkin Elmer® #6005680). The cultures are maintained in growth medium supplemented with 100 μg/ml of zeocin (Invitrogen #45-0430) until they reach 100% of confluence (48-72 h). The cultures were then synchronized with 100 μl of synchronization medium [EMEM (Cellgro #10-010-CV); 100 I.U./ml of penicillin-streptomycin (Cellgro #30-001-C1); 50% HS (Gibco #16050-122)] for 2 hours at 37° C. and under 5% CO2. After synchronization, the cultures were rinsed with 100 μl of EMEM (Cellgro #10-010-CV) for 10 minutes at ambient temperature. […]
The period analysis was performed either by determining the interval between the relative light emission minima over several days or by Fourier transform. […] The data were analyzed by adjusting a hyperbolic curve to the data expressed as change of period (y-axis) as a function of the concentration of the test compound (x-axis) in the XLfit™ software and the CE Delta (t+1 h) was interpolated from this curve.

**Q.** Which “CE Delta (t + 1 h)” value does the source give for `CN1CCN(c2ccc3nc(-c4ccc(F)cc4)c(-c4ccnnc4)n3n2)CC1` [compound 5, 2-(4-fluorophenyl)-6-(4-methylpiperazin-1-yl)-3-pyridazin-4-yl-imidazo[1,2-b]pyridazine] here?
**A.** 5 nM

Source: patent US8455491B2, “6-cycloamino-3-(pyridazin-4-yl)imidazo[1,2-b]pyridazine and derivatives and pharmaceutical compositions comprising the same” (Sanofi, priority 2007, dated 2013)
